Entries after “also recorded” stand apart in the source; their conditions may differ.
Key:
full-length His6-JMJD6 [1] = biological target: T1, full-length His6-JMJD6 (Homo sapiens, UniProt Q6NYC1); experiment: SPE-MS time-course of JMJD6-catalysed hydroxylation of BRD-derived peptides; assay type: biochemical; settings: 0.05 μM JMJD6, 2 μM peptide, 2OG 200 μM, FAS 2 μM, LAA 100 μM, Tris 50 mM pH 7.5
T1 construct: An enzyme mixture (10 μL) containing full-length His6-JMJD6 (5 μM; final concentration: 0.05 μM); made in house; host or cells: Escherichia coli BL21 (DE3), pET-28a(+) plasmid
Experimental: Fig. 2 JMJD6-catalysed hydroxylation of homologous 40 mer peptides derived from bromodomain-containing proteins BRD2, BRD3, and BRD4. (a)–(c) Red MS spectra: JMJD6-catalysed hydroxylation after 10 min of (a) BRD2_520–559, (b) BRD3_463–502, and (c) BRD4_511–550. Black MS spectra: no enzyme controls. (d)–(f) JMJD6-catalysed hydroxylation of (d) BRD2_520–559, (e) BRD3_463–502, and (f) BRD4_511–550 showing the relative abundance of the non-hydroxylated substrate (orange circles), mono-hydroxylated product (green squares), di-hydroxylated product (purple triangles) and tri-hydroxylated product (light blue diamonds) over time. Data are means of three independent runs (n = 3; means ± SD).
(§1) The JMJD6-catalysed hydroxylation of the BRD-derived substrate peptide was monitored at ambient temperature by SPE-MS using a RapidFire RF 365 high-throughput sampling robot (Agilent) attached to an iFunnel Agilent 6550 accurate mass quadrupole time-of-flight (Q-TOF) mass spectrometer, which was operated in the positive ionization mode. Assay samples were aspirated under vacuum for 0.4 s, then loaded onto a C4 solid phase extraction (SPE) cartridge. After loading, the C4 SPE cartridge was washed with 0.1%v/v aqueous formic acid to remove non-volatile buffer salts (5 s, 1.5 mL min^−1). The peptide was eluted from the SPE cartridge with 0.1%v/v aqueous formic acid in 75/25v/v acetonitrile/water into the mass spectrometer (5 s, 1.6 mL min^−1) and the SPE cartridge re-equilibrated with 0.1%v/v aqueous formic acid (1 s, 1.25 mL min^−1).
Peaks corresponding to the m/z +5 charge states of the BRD-derived substrate peptide and the hydroxylated product peptides were extracted from the ion chromatogram and integrated using RapidFire Integrator 4.3.0 (Agilent). Peak area data were exported into Microsoft Excel and used to calculate the relative abundance of the mono-hydroxylated product peptide using the following equation:
% of mono-hydroxylated product peptide = 100 × (integral of mono-hydroxylated product peptide)/(integral of non-hydroxylated substrate peptide + sum of integrals of all hydroxylated product peptides). Note that for the time-period used to calculate initial reaction velocities, negligible amounts of multi-hydroxylated product peptide were observed (<5%); therefore, the sum of integrals of all hydroxylated product peptides ≈ the integral of the mono-hydroxylated product peptide.

full-length His6-JMJD6 [2] = biological target: T1, full-length His6-JMJD6; experiment: LC-MS of JMJD6-catalysed hydroxylation under 18O2 or in 18OH2; assay type: biochemical; settings: 2OG 2 mM, FAS 20 μM, LAA 1 mM, peptide 50 μM, Tris pH 7.5, 24 h, room temperature
Experimental: […] The assay solutions were transferred to a custom-made air-tight container, which was then sealed and removed from the anaerobic chamber. […] The container was evacuated and then filled with […] to a pressure of ∼700 mbar. […] The enzyme reactions were incubated for 24 h at room temperature, after which time the container was returned to the anaerobic chamber. The reactions were stopped by the addition of 10%v/v aqueous formic acid (20 μL) and analysed by LC–MS using an Agilent 1290 infinity II LC system comprising a 1290 infinity II multi-sampler and a 1290 infinity II high speed pump connected to an Agilent 6550 accurate mass iFunnel quadrupole time-of-flight (QTOF) mass spectrometer. Samples (6 μL) were injected onto a 2.1 × 50 mm, 1.8 μm ZORBAX RRHD Eclipse Plus C18 column equipped with a UHPLC guard column (Agilent; flow rate: 0.2 mL min^−1). […] Acquired data were analysed using Agilent MassHunter Qualitative Analysis (version B.07.00).
Tris buffer, cofactor and BRD4_511–550 stock solutions were prepared using ^18OH2 (CK Isotopes) and JMJD6 was buffer exchanged into 50 mM Tris (pH 7.5) in ^18OH2. The enzyme reactions were incubated under an ambient atmosphere at room temperature for 24 h, after which the reactions were stopped by the addition of 10%v/v aqueous formic acid (20 μL) and analysed by LC–MS as described above.

[3] = retention on SPE cartridges; assay type: physicochemical; settings: C4 SPE cartridge
Description: as §1

full-length His6-JMJD6 [4] = biological target: T1, full-length His6-JMJD6; experiment: SPE-MS kinetics of JMJD6 for O2; assay type: biochemical
Experimental: Recombinant human JMJD6 (full length with a N-terminal His6-tag) was produced in Escherichia coli BL21 (DE3) cells using a pET-28a(+) plasmid and purified by standard Ni(II)-affinity size-exclusion chromatography, as previously reported.[40] […] Purified JMJD6 was stored at −78 °C; fresh aliquots were used for all JMJD6 assays.
Assays to determine the kinetic parameters of JMJD6 for O2 were performed in 2 mL gas-tight glass vials (Sigma-Aldrich) in independent triplicates. 50 mM Tris buffer (pH 7.5; 0.95 mL) was incubated in a 2 mL gas-tight glass vial at 37 °C for 30 min with a fixed O2 concentration (in N2; specified in Fig S9, ESI ^†), adjusted using a mass flow controller. […] The JMJD6-catalysed reaction was performed at 37 °C at a fixed O2 concentration and was stopped after the reaction time specified (Fig. S9, ESI ^†) by the addition of 20%v/v aqueous formic acid (100 μL) and analysed by SPE-MS. The %-concentration of O2 in N2, adjusted with a mass flow controller, was converted into an O2 concentration [μM] by calibration using a standard (i.e., y[μM] = 9.026·x[%]).[100] Data were analysed by SPE-MS as described above to calculate apparent JMJD6 kinetic parameters for O2.

LAELQEQLKAVHEQLAALSQPQQNKPKKKEKDKKEKKKEK [BRD4_511–550, 40-mer peptide fragment derived from human BRD4, JMJD6 substrate, prepared by SPPS]
number of hydroxylation products observed (+16 Da mass shifts) (full-length His6-JMJD6 [1]; initial time-course, n = 3): two
hydroxylation by JMJD6 (in words) (full-length His6-JMJD6 [1]; time-course, SPE-MS): efficiently hydroxylated by isolated recombinant JMJD6; also recorded: mono-hydroxylated more efficiently than BRD3_463–502 whilst showing substantially lower levels of di-hydroxylation and no tri-hydroxylation by comparison with BRD2_520–559; also recorded: multiple hydroxylations
incorporated oxygen in 18OH2 (full-length His6-JMJD6 [2]; 16O2 atmosphere in 18OH2, JMJD6 2 μM): complete incorporation of ^16O from atmospheric O2
mass shifts / origin of incorporated oxygen under 18O2 (full-length His6-JMJD6 [2]; 18O2 atmosphere in H2O, JMJD6 2 μM): successive +18 Da shifts; also recorded: originates, at least, predominantly from ^18O2; also recorded: originate predominantly from atmospheric O2
retention on SPE cartridge [3]: efficiently retained on a C4 SPE cartridge
JMJD6-catalysed hydroxylation at low O2 (full-length His6-JMJD6 [4]; [O2] < 2.5%): inhibited at low oxygen concentrations; also recorded: sensitive to low O2 concentrations
di- or higher-order hydroxylation (full-length His6-JMJD6 [4]; varied O2, 37 °C, 60 or 90 s): no evidence for di- (or higher order) hydroxylation
